# Laboratory results reported in patent publication US20260297060A1, “COMPOUNDS FOR THE DEGRADATION OF MUTANT BRAF” (C4 THERAPEUTICS, INC., priority 2023, published 2026).
# Where two headings read alike, the source gives them in different places.
# Tests used:
# [1] = tested on: A375-NRAS^Q61K cells; assay: CTGlo Cell Viability Assay, A375-NRAS^Q61K (A375.11) cells, 96 hours; format: cell-based, human; settings: A375.11 (A375-NRAS^Q61K) cells; for Emax / CTGlo A375.11 96 hours Emax: lowest % viability achieved
# In short: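 A375 cells carrying BRAF V600E and NRAS Q61K were seeded at 250 cells/well with a 10-point half-log dose series (max 10 μM final). After 96 h at 37 °C, viability was read as ATP luminescence (CellTiter-Glo), background-subtracted and normalized to DMSO (100%). GI50 from 4-parameter fit; Emax is the lowest % viability.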
# [2] = molecular target: T1, BRAF V600E (Homo sapiens, UniProt P15056+Q96SW2, V600E); assay: BRAF V600E HiBiT Degradation Assay; format: cell-based
# T1 construct: knock-in of the HiBiT tag to the endogenous BRAF V600E locus; host or cells: A375.10 (A375 clonal line, CRISPR HiBiT knock-in at the endogenous BRAF V600E locus)
# T1 sequence (P15056 whole entry V600E): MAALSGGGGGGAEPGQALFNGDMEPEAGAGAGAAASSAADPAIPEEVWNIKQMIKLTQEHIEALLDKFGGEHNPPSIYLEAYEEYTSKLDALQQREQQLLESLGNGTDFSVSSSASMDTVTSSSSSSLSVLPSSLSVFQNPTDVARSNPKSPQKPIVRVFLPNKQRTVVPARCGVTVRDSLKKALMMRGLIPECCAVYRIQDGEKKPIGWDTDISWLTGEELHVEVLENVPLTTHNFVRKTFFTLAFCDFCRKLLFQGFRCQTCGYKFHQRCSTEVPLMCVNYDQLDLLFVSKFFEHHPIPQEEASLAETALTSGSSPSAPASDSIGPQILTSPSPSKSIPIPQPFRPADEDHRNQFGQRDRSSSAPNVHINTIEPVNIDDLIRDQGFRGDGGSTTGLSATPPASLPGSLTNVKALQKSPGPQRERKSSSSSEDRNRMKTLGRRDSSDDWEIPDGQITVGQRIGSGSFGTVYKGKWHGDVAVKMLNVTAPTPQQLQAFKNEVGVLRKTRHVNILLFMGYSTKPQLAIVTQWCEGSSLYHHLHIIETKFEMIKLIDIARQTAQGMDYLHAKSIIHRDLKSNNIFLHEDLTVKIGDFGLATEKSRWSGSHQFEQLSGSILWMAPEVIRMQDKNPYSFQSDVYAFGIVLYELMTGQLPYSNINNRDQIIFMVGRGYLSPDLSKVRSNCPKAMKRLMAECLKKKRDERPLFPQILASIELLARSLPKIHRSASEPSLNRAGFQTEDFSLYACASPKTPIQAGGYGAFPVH
# T1 sequence (Q96SW2 whole entry): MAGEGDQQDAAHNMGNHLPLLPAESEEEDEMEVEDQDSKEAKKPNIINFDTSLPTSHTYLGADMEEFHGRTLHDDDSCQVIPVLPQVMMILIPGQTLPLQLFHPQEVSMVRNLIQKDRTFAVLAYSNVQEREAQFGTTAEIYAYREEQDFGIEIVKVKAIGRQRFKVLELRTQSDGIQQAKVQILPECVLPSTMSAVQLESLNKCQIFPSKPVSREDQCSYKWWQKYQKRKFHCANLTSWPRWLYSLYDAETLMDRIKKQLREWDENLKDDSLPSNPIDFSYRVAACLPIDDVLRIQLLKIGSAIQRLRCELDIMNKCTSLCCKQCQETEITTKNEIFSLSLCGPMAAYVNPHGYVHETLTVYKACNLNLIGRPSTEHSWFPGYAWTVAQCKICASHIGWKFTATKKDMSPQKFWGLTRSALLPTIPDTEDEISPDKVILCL
# T1 sequence (Q16531 whole entry partner): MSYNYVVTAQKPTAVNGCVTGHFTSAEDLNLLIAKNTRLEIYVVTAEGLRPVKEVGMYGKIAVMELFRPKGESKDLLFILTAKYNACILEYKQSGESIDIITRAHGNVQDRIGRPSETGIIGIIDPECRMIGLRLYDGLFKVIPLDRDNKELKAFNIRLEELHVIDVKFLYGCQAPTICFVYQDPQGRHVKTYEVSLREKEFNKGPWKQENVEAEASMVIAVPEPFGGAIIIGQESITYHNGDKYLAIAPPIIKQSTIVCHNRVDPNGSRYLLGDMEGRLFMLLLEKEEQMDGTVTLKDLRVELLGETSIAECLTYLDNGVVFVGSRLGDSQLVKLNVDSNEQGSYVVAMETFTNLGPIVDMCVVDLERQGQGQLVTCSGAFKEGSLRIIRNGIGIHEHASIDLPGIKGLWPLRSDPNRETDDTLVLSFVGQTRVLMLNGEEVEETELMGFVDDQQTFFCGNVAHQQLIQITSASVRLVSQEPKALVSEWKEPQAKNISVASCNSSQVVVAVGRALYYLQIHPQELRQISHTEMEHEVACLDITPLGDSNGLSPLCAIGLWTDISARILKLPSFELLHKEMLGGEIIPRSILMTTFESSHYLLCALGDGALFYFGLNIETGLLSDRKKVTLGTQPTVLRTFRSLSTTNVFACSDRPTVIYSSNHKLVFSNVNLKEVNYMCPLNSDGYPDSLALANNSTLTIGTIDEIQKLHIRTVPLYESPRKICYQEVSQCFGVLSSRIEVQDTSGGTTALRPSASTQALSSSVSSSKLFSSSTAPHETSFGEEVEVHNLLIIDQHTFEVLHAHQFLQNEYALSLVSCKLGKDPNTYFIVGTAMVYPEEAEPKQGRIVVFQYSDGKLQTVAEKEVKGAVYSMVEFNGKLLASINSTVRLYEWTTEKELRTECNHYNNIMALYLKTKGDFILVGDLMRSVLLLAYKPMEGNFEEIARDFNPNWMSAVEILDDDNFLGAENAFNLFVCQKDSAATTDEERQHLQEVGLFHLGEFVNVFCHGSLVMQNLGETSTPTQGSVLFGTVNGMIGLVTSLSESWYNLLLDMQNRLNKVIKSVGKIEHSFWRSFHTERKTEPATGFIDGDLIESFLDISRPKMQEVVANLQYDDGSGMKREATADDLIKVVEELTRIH
# In short: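 Endogenous HiBiT knock-in on BRAF V600E in A375 cells (clone A375.10); 11-point half-log series, top 10 μM, 2, 6 or 24 h at 37° C. Lytic HiBiT luminescence, background-subtracted, normalized to DMSO; 4-parameter fit gives DC50, Emax (residual protein) and IP (inflection point).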
# [3] = A375.10 cells, BRAF V600E, 2 hours, inflection point, read-out: HiBiT-Degradation A375.10 BRAF 2 hours IP
# [4] = A375.10 cells, BRAF V600E, 2 hours, read-out: HiBiT-Degradation A375.10 BRAF 2 hours DC50
# [5] = A375.10 cells, BRAF V600E, 2 hours, residual protein remaining, read-out: HiBiT-Degradation A375.10 BRAF 2 hours Emax
# [6] = A375.10 cells, BRAF V600E, 2 hours, residual protein remaining
# [7] = read-out: HiBiT-Degradation A375.10 BRAF 2 hours DC50, A375.10 cells, BRAF V600E, 2 hours
# [8] = read-out: HiBiT-Degradation A375.10 BRAF 2 hours IP, A375.10 cells, BRAF V600E, 2 hours, inflection point
# [9] = A375.10 cells, BRAF V600E, 2 hours, inflection point
SMILES,"GI50 ([1]; Homo sapiens, 96 h) [nM]","DC50 [2, 3] [nM]","DC50 [2, 4] [nM]",GI50 [1] [nM],"Emax [2, 5] [%]","HiBiT-Degradation A375.10 BRAF 2 hours Emax [2, 6]","Emax ([1]; Homo sapiens, 96 h) [%]",CTGlo A375.11 96 hours Emax [1],other results
"CCN(C)S(=O)(=O)Nc1ccc(F)c(Oc2ccc3ncnc(OC4CC5(C4)CN(C4CCC(c6cc7c(cc6F)c(N6CCC(=O)NC6=O)nn7C)CC4)C5)c3c2)c1C#N (single isomer, unassigned) [Compound 232, 6-[2-cyano-3-[[ethyl(methyl)sulfamoyl]amino]-6-fluoro-phenoxy]-4-[[2-[4-[3-(2,4-dioxohexahydropyrimidin-1-yl)-5-fluoro-1-methyl-indazol-6-yl]cyclohexyl]-2-azaspiro[3.3]heptan-6-yl]oxy]quinazoline]",> 10000,< 1000,< 1000,–,–,–,50 to 90,–,"Emax ([2]; read-out: HiBiT-Degradation A375.10 BRAF 2 hours Emax, A375.10 cells, BRAF V600E, 2 hours, residual protein remaining): 50 to 90%"
"CCN(C)S(=O)(=O)Nc1ccc(F)c(Oc2ccc3ncn([C@H]4COC5(C4)CN(C4CCC(c6cc7c(cc6F)c(N6CCC(=O)NC6=O)nn7C)CC4)C5)c(=O)c3c2)c1C#N (single isomer, unassigned) [Compound 235]",–,< 1000,1000 to 10000,> 10000,< 50,–,50 to 90,–,–
"CCN(C)S(=O)(=O)Nc1ccc(F)c(Oc2ccc3ncn([C@H]4COC5(C4)CN(C4CCC(c6cc7c(cc6F)c(N6CCC(=O)NC6=O)nn7C)CC4)C5)c(=O)c3c2)c1C#N (single isomer, unassigned) [Compound 236]",–,< 1000,< 1000,1000 to 10000,–,*** (<=50%),–,** (<90% and >50%),–
"CCN(C)S(=O)(=O)Nc1ccc(F)c(Oc2ccc3ncn([C@@H]4COC5(C4)CN(C4CCC(c6cc7c(cc6F)c(N6CCC(=O)NC6=O)nn7C)CC4)C5)c(=O)c3c2)c1C#N (single isomer, unassigned) [Compound 237]",–,< 1000,< 1000,> 10000,< 50,–,50 to 90,–,–
"CCN(C)S(=O)(=O)Nc1ccc(F)c(Oc2ccc3ncn([C@@H]4COC5(C4)CN(C4CCC(c6cc7c(cc6F)c(N6CCC(=O)NC6=O)nn7C)CC4)C5)c(=O)c3c2)c1C#N (single isomer, unassigned) [Compound 238]",–,< 1000,< 1000,< 1000,–,*** (<=50%),–,** (<90% and >50%),"DC50 ([2]; A375.10 cells, HiBiT, BRAF V600E, 24 hours, read-out: HiBiT-Degradation A375.10 BRAF 24 hours DC50): < 1000 nM; Emax ([2]; A375.10 cells, HiBiT, BRAF V600E, 24 hours, read-out: HiBiT-Degradation A375.10 BRAF 24 hours Emax): < 50%; DC50 ([2]; A375.10 cells, HiBiT, BRAF V600E, 24 hours, read-out: HiBiT-Degradation A375.10 BRAF 24 hours IP): < 1000 nM"
"CCN(C)S(=O)(=O)Nc1ccc(F)c(Oc2ccc3ncn(C4[C@H]5CN(C6CCC(c7cc8c(cc7F)c(N7CCC(=O)NC7=O)nn8C)CC6)C[C@@H]45)c(=O)c3c2)c1C#N (single isomer, unassigned) [Compound 240]",1000 to 10000,< 1000,< 1000,–,< 50,–,50 to 90,–,–

# Now from value to compound, other results behind:
"GI50 ([1]; Homo sapiens, 96 h) [nM]","DC50 [2, 3] [nM]","DC50 [2, 4] [nM]",GI50 [1] [nM],"Emax [2, 5] [%]","HiBiT-Degradation A375.10 BRAF 2 hours Emax [2, 6]",SMILES,"Emax ([1]; Homo sapiens, 96 h) [%]",CTGlo A375.11 96 hours Emax [1],other results
–,< 1000,< 1000,> 10000,–,–,"CCN(C)S(=O)(=O)Nc1ccc(F)c(Oc2ccc3ncnc(OC4CC5(C4)CN(C4CCC(c6cc7c(cc6F)c(N6CCC(=O)NC6=O)nn7C)CC4)C5)c3c2)c1C#N (single isomer, unassigned) [Compound 233, 6-[2-cyano-3-[[ethyl(methyl)sulfamoyl]amino]-6-fluoro-phenoxy]-4-[[2-[4-[3-(2,4-dioxohexahydropyrimidin-1-yl)-5-fluoro-1-methyl-indazol-6-yl]cyclohexyl]-2-azaspiro[3.3]heptan-6-yl]oxy]quinazoline]",–,** (<90% and >50%),HiBiT-Degradation A375.10 BRAF 2 hours Emax [2]: ** (<90% and >50%)
1000 to 10000,< 1000,1000 to 10000,–,50 to 90,–,"CCN(C)S(=O)(=O)Nc1ccc(F)c(Oc2ccc3ncnc(OC4CC5(CCN(C6CCC(c7cc8c(cc7F)c(N7CCC(=O)NC7=O)nn8C)CC6)CC5)C4)c3c2)c1C#N (single isomer, unassigned) [Compound 243, 6-[2-cyano-3-[[ethyl(methyl)sulfamoyl]amino]-6-fluoro-phenoxy]-4-[[7-[4-[3-(2,4-dioxohexahydropyrimidin-1-yl)-5-fluoro-1-methyl-indazol-6-yl]cyclohexyl]-7-azaspiro[3.5]nonan-2-yl]oxy]quinazoline]",50 to 90,–,–
1000 to 10000,< 1000,< 1000,–,< 50,–,"CC(C)S(=O)(=O)Nc1ccc(F)c(Oc2ccc3ncc(C4CC5(CCN(C6CCC(c7cc8c(cc7F)c(N7CCC(=O)NC7=O)nn8C)CC6)CC5)C4)nc3c2)c1C#N (single isomer, unassigned) [Compound 248, N-[2-cyano-3-[3-[7-[4-[3-(2,4-dioxohexahydropyrimidin-1-yl)-5-fluoro-1-methyl-indazol-6-yl]cyclohexyl]-7-azaspiro[3.5]nonan-2-yl]quinoxalin-6-yl]oxy-4-fluoro-phenyl]propane-2-sulfonamide]",50 to 90,–,–
–,< 1000,< 1000,< 1000,–,*** (<=50%),"CC(C)S(=O)(=O)Nc1ccc(F)c(Oc2ccc3ncc(C4CC5(CCN(C6CCC(c7cc8c(cc7F)c(N7CCC(=O)NC7=O)nn8C)CC6)CC5)C4)nc3c2)c1C#N (single isomer, unassigned) [Compound 249, N-[2-cyano-3-[3-[7-[4-[3-(2,4-dioxohexahydropyrimidin-1-yl)-5-fluoro-1-methyl-indazol-6-yl]cyclohexyl]-7-azaspiro[3.5]nonan-2-yl]quinoxalin-6-yl]oxy-4-fluoro-phenyl]propane-2-sulfonamide]",–,** (<90% and >50%),–
< 1000,< 1000,< 1000,–,< 50,–,"Cn1nc(N2CCC(=O)NC2=O)c2cc(F)c([C@H]3CC[C@@H](N4CCC5(CC4)CC(c4cnc6ccc(Oc7c(F)ccc(NS(=O)(=O)N8CC[C@@H](F)C8)c7C#N)cc6n4)C5)CC3)cc21 (single isomer, unassigned) [Compound 268]",< 50,–,–
< 1000,–,–,–,< 50,–,"Cn1nc(N2CCC(=O)NC2=O)c2cc(F)c(C3CCC(N4CCC5(CC4)CC(c4cnc6ccc(Oc7c(F)ccc(NS(=O)(=O)C8CCCC8)c7C#N)cc6n4)C5)CC3)cc21 (single isomer, unassigned) [Compound 270, N-[2-cyano-3-[3-[7-[4-[3-(2,4-dioxohexahydropyrimidin-1-yl)-5-fluoro-1-methyl-indazol-6-yl]cyclohexyl]-7-azaspiro[3.5]nonan-2-yl]quinoxalin-6-yl]oxy-4-fluoro-phenyl]cyclopentanesulfonamide]",50 to 90,–,"DC50 [2, 7]: < 1000 nM; DC50 [2, 8]: < 1000 nM"
–,–,–,< 1000,–,*** (<=50%),"Cn1nc(N2CCC(=O)NC2=O)c2cc(F)c(C3CCC(N4CCC5(CC4)CC(c4cnc6ccc(Oc7c(F)ccc(NS(=O)(=O)C8CCCC8)c7C#N)cc6n4)C5)CC3)cc21 (single isomer, unassigned) [Compound 271, N-[2-cyano-3-[3-[7-[4-[3-(2,4-dioxohexahydropyrimidin-1-yl)-5-fluoro-1-methyl-indazol-6-yl]cyclohexyl]-7-azaspiro[3.5]nonan-2-yl]quinoxalin-6-yl]oxy-4-fluoro-phenyl]cyclopentanesulfonamide]",–,*** (<=50%),"DC50 [2, 7]: < 1000 nM; DC50 [2, 8]: < 1000 nM"
–,–,–,> 10000,50 to 90,–,"CO[C@H]1CCN(S(=O)(=O)Nc2ccc(F)c(Oc3ccc4ncc(C5CC6(CCN(C7CCC(c8cc9c(cc8F)c(N8CCC(=O)NC8=O)nn9C)CC7)CC6)C5)nc4c3)c2C#N)C1 (single isomer, unassigned) [Compound 275]",50 to 90,–,"HiBiT-Degradation A375.10 BRAF 2 hours IP [2, 9]: *** (<=1 μM); DC50 [2, 7]: < 1000 nM"
–,–,–,1000 to 10000,–,** (<90% and >50%),"CO[C@H]1CCN(S(=O)(=O)Nc2ccc(F)c(Oc3ccc4ncc(C5CC6(CCN(C7CCC(c8cc9c(cc8F)c(N8CCC(=O)NC8=O)nn9C)CC7)CC6)C5)nc4c3)c2C#N)C1 (single isomer, unassigned) [Compound 276]",–,** (<90% and >50%),"HiBiT-Degradation A375.10 BRAF 2 hours IP [2, 9]: *** (<=1 μM); DC50 [2, 7]: < 1000 nM"
